Measurements: US8034833B2, “Phosphorus binder for treatment of renal disease” (Biolink Life Sciences, Inc., priority 2008, dated 2011)
Read-outs that look alike come from different tables or passages of the source.

Tests used:
[1] = intravenous administration, cited from earlier work
[2] = cited from earlier work
[3] = in many patients; cited from earlier work
[4] = tested on: parathyroid hormone (PTH) secretion; conditions: maintenance dialysis patients; cited from earlier work
[5] = cited from earlier work; remark: listed apart in the source
[6] = 77 mEq per os; normal subjects; cited from earlier work
[7] = Solubility in water of cationic phosphate binders (Lange's Handbook); conditions: relative hydrophile by solubility in water
[8] = pH 6.0; Sheikh et al. (Note 2); cited from earlier work
[9] = hemodialysis or peritoneal dialysis patients; cited from earlier work

For `C[N+](C)(C)C[C@H](O)CC(=O)[O-]` [L-carnitine, L-(−)-Carnitine], the “effect on total, LDL and HDL cholesterol” value [1] is listed as “decrease total cholesterol and LDL cholesterol while significantly increasing HDL cholesterol” and the “effect on serum phosphate concentrations” value ([1]; maintenance hemodialysis patients) is listed as “reduced the serum phosphate concentrations significantly”.
For `[Mg+2].[OH-].[OH-]` [Magnesium Hydroxide], the “serum Mg level, average” value ([2]; during Mg(OH)2 treatment) is listed as 4.3 mg/dL, the “serum Pi level” value ([2]; human, in vivo) is listed as 6.1 mg/dL and the severe hyperkalemia [3] is listed as at most 8 mEq/L. For the same compound, the “suppression of parathyroid hormone (PTH) secretion” value [4] was “Neither the combination of oral calcium carbonate/magnesium hydroxide nor magnesium hydroxide alone was effective”, the “serum Pi level” value ([5]; average 734 mg elemental Mg/day, three to five weeks, control (no binders) 9.0 mg/dL) was 8.1 mg/dL and the “mean serum Mg level” value ([5]; average 734 mg elemental Mg/day, dialysate Mg 1.2 to 1.8 mg/dl) was 4.32 mg/dL. The “patients who developed diarrhea” value ([5]; nine patients treated) was “Four of nine”.
In the case of Magnesium Acetate, the Pi absorption [6] is given as 28%.
For `[O]=[Mg]` [Magnesium Oxide], the “Hydrophile?” value [7] was “No”.
For Calcium Gluconate, the “Observed in vitro Pi Binding, %” value [8] is listed as 90%.
For choline magnesium trisalicylate, the “effect on serum Pi levels” value [9] is given as “no effect”.
